This is an account of results in patent US5961482A, “Iontotherapeutic device and process and iontotherapeutic unit dose” (Rutgers, The State University Of New Jersey, priority 1996, dated 1999).

The conditions of series [1]: for Tlag: printed beside pH 4.0 value.
The conditions of series [2]: for Cumulative Amount of Drug Absorbed: donor 6.2 mg/ml pH 9.0, 37° C.
Series [3] can be described thus: In vitro skin permeation of insulin, Valia-Chien cell, I^125-insulin scintillation counting. The format is in vitro ADME, hairless rat. The conditions noted are these: for Skin Permeation Rate: 5.3 IU/ml, pH 7.1. The method, then: (§1) An aqueous solution of insulin (5.3 IU/ml containing 0.3 mcCi of I^125 -insulin) is prepared and adjusted to pH 7.1 using NaOH. An aliquot of 3.5 ml of this insulin solution is filled into the refillable dosage unit having a microporous membrane as the drug-releasing surface. The dosage unit is then assembled as a part of the pharmaceutical reservoir electrode of the iontotherapeutic device and membrane surface thereof is applied to the stratum corneum side of hairless rat skin mounted in the Valia-Chien skin permeation cell at 37° C. Samples are withdrawn at regular time intervals and radioactivity is measured by scintillation counter to determine the amount of insulin which has been transdermally absorbed.
as §1, with “pH 3.7, 5.2 or” for “pH”, “either HCl or NaOH solution.” for “NaOH.”, “radio-activity” for “radioactivity”

Series [4] relates to blood glucose level (B.G.L.) in the diabetic hairless rats. Put plainly: Reduction in blood glucose level in diabetic hairless rats. Format: in vivo. The method, then: An aqueous solution of insulin at a concentration of 250 IU/ml is prepared by dissolving 193.8 mg (25.8 IU/mg) of pure porcine insulin in 20 ml of citrate buffer at pH 3.6. Two ml of the insulin solution so prepared is filled into a refillable dosage unit having a microporous membrane as the drug-releasing surface. This insulin-containing reservoir-type dosage unit is then assembled as a part of the pharmaceutical reservoir electrode of the iontotherapeutic device and applied successively on the abdominal skin of 9 diabetic hairless rats with the transdermal periodic iontotherapeutic system operating at 1 mA with square waveform mode to study the effect of frequency, on/off ratio and treatment duration on the reduction of blood glucose level. The results are shown and compared, respectively, in FIGS. 16, 17 and 18.
The same insulin solution is prepared in the same way as in Example 1, except that a phosphate buffer at pH 7.1 is used to replace the double-distilled water. Two ml of the insulin solution so prepared is filled into a refillable dosage unit having a microporous membrane as the drug-releasing surface. This unit dose is applied to 3 diabetic hairless rats following the same operation procedures as in Example 3 to study the effect of treatment duration on the reduction of blood glucose level.
(§2) An aqueous buffer solution of insulin (250 IU/ml) is prepared in citrate-phosphate buffer at pH 3.68. An aliquot of 2.5 ml of this insulin solution is filled into the refillable dosage unit having a microporous membrane as the drug-releasing surface. The dosage unit is then assembled as a part of the pharmaceutical reservoir electrode of the iontotherapeutic device and membrane surface thereof is applied to the skin at abdominal region of 3 groups of anaesthetized, diabetic hairless rats. Blood samples are withdrawn at regular time intervals and glucose levels are measured by glucose analyzer. The reduction in glucose level from hyperglycemic state is the pharmacodynamic responses to the insulin absorbed transdermally.
as §2, with “5” for “3 groups of”

The nature of series [5]: Plasma immunoreactive insulin concentration in diabetic rabbits by radioimmunoassay. Format: in vivo. To be noted: TPIS 1 mA, 500 IU/ml pH 7.10. The method, then: (§3) An aqueous solution of insulin (500 IU/ml) at pH 7.10 is used. An aliquot of 2.5 ml of this insulin solution is filled into the refillable dosage unit having a microporous membrane as the drug-releasing surface. The dosage unit is then assembled as a part of the pharmaceutical reservoir electrode of the iontotherapeutic device and membrane surface thereof is applied to the skin at dorsal region of 3 diabetic rabbits. Blood samples are withdrawn at regular time intervals and analyzed for immunoreactive insulin concentration by radioimmunoassay and for glucose levels by glucose analyzer. The reduction in glucose level from hyperglycemic state is the pharmacodynamic responses to the insulin transdermally absorbed.
An aqueous solution of insulin (500 IU/ml) at pH 7.10 is used. An aliquot of 2.5 ml of this insulin solution is filled into the refillable dosage unit having a microporous membrane as the drug-releasing surface. The dosage unit is then assembled as a part of the pharmaceutical reservoir electrode of the iontotherapeutic device and membrane surface thereof is applied to the abdominal skin of 2 groups of diabetic rabbits. Blood samples are withdrawn at regular time intervals and analyzed for immunoreactive insulin concentration by radioimmunoassay and for glucose levels by glucose analyzer. […]

Series [6] deals with blood glucose level (B.G.L.) in diabetic rabbits. The series can be described thus: Reduction of blood glucose levels in diabetic rabbits by glucose analyzer. The format is in vivo. The procedure:
as §3
An aqueous solution of insulin (500 IU/ml) at pH 7.10 is used. An aliquot of 2.5 ml of this insulin solution is filled into the refillable dosage unit having a microporous membrane as the drug-releasing surface. The dosage unit is then assembled as a part of the pharmaceutical reservoir electrode of the iontotherapeutic device and membrane surface thereof is applied to the abdominal skin of 2 groups of diabetic rabbits. Blood samples are withdrawn at regular time intervals and analyzed for immunoreactive insulin concentration by radioimmunoassay and for glucose levels by glucose analyzer. The reduction in glucose level from hyperglycemic state is the pharmacodynamic responses to the insulin transdermally absorbed.

Where a name gives a salt, the structure may show the parent alone. Read-outs that look alike come from different tables or passages of the source.

As for `COc1ccc2c3c1O[C@H]1C(=O)CC[C@H]4[C@@H](C2)N(C)CC[C@]314` [Hydrocodone, hydrocodone], the Skin Permeation Rate in series [1] (Control, pH 4.0) came out at 3.10 mcg/cm^2 /hr; in series [1] (Control, pH 7.5, ± S.D.), 4.75 ± 1.70 mcg/cm^2 /hr; in series [1] (DC mode, 1 mA, 2 min hourly for 12 hours, pH 4.0), 37.5 mcg/cm^2 /hr; in series [1] (DC mode, 1 mA, 2 min hourly for 12 hours, pH 7.5, ± S.D.), 7.61 ± 2.74 mcg/cm^2 /hr; in series [1] (periodic wave mode, square wave, 2000 Hz, on/off 1/1, 1 mA, 2 min hourly, pH 4.0), 59.4 mcg/cm^2 /hr; in series [1] (periodic wave mode, square wave, 2000 Hz, on/off 1/1, 1 mA, 2 min hourly, pH 7.5, ± S.D.), 7.01 ± 1.16 mcg/cm^2 /hr. Besides, the Tlag is 5.17 h in series [1] (Control); 0.72 h in series [1] (DC mode, 1 mA, 2 min hourly); 0.90 h in series [1] (periodic wave mode, 2000 Hz, on/off 1/1, 1 mA).

As for `COc1ccc2c(c1)c(CC(=O)O)c(C)n2C(=O)c1ccc(Cl)cc1` [Indomethacin, indomethacin], the “Skin Permeation Rate” value is 1.47 mcg/cm^2 /hr in series [2] (No TPIS, pH 5.5); 0.76 mcg/cm^2 /hr in series [2] (With TPIS (1.2 mA, 5 min/hr for 7 hours, 2000 Hz, square, on/off 2/1), pH 2.5); 0.44 mcg/cm^2 /hr in series [2] (With TPIS (1.2 mA, 5 min/hr for 7 hours, 2000 Hz, square, on/off 2/1), pH 4.5); 6.30 mcg/cm^2 /hr in series [2] (With TPIS (1.2 mA, 5 min/hr for 7 hours, 2000 Hz, square, on/off 2/1), pH 5.5).

On to insulin, for which the Skin Permeation Rate in series [3] (TIDD 1 mA, 0 Hz, 5 min per 60 min for 7 hrs) is reported as 37.5 (±4.5) mcIU/cm^2 /hr; in series [3] (no iontotherapy, 48 hours), 3.94±0.29 mcIU/cm^2 /hr. For the same molecule, in series [3] (lower pH solution (pH 3.7) vs pH 5.2 and 7.1), the “increase in TPIS-facilitated skin permeability, pH dependence” value is given as “greater increase”. The blood glucose levels entry in series [4] (TPIS 1 mA, 2 KHz, on/off 1/1, 40 min, 250 IU/ml pH 3.68, waveforms compared) was “reduced substantially”; in series [6] (TPIS 1 mA, 2 KHz, on/off 1/1, square, 40 min, 500 IU/ml pH 7.10, dorsal skin), “reduced substantially”. In addition, the “blood glucose levels, Day 1” value in series [4] (TPIS 1 mA, 2 KHz, square, on/off 1/1, 40 min, 250 IU/ml pH 3.68, Day 1) was “reduced substantially”. For the same molecule, the “reduction of blood glucose level, effect of treatment duration” value in series [4] (TPIS 1 mA, on/off 1/1, 1000 Hz, pH 7.1) was “difference in the rate and the duration, but with equal effectiveness”. The “reduction of blood glucose level, effect of treatment duration 20-40 minutes” value in series [4] (TPIS 1 mA, on/off 8/1, 2000 Hz, pH 3.6) is on record as “equally effective”. The “reduction of blood glucose level, 2000 Hz vs 1000 Hz” value in series [4] (TPIS 1 mA, square waveform, frequency of 2000 Hz vs 1000 Hz, pH 3.6) was “greater magnitude and a longer duration of reduction”. Also, in series [4] (TPIS on Day 3 with no insulin in electrode, after insulin delivered on Day 1 (skin depot)), the “blood glucose, Day 3” value was “also reduced”. Moreover, the “plasma immunoreactive insulin concentration” value in series [5] (2 KHz, on/off 1/1, square, 40 min, dorsal skin) is recorded as “increases rapidly”. Also, in series [5] (40 min vs TIDD 4 mA, 80 min, abdominal skin), the “plasma immunoreactive insulin concentration, TPIS vs TIDD” value is reported as “increases more rapidly”. In series [6] (TIDD (4× current, 2× administration time), pH 7.10), the “reduction of blood glucose level by TIDD” value was “lower than the normoglycemic level”. In addition, the “blood glucose levels, TPIS vs TIDD” value in series [6] (TPIS 1 mA, 40 min vs TIDD 4 mA, 80 min, 500 IU/ml pH 7.10, abdominal skin) was “reduced more instantaneously”. Moreover, the “reduction of blood glucose level by TPIS” value in series [6] (TPIS, from hyperglycemic level, pH 7.10) was “near instantaneous reduction”. Also, the “blood glucose level control by TPIS vs SC” value in series [6] (TPIS, pH 7.1, compared with subcutaneous administration) was “controlled at a highly constant level”.

For the molecule `CN(C)[C@@H]1C(=O)C(C(N)=O)=C(O)[C@@]2(O)C(=O)C3=C(O)c4c(O)cccc4[C@@](C)(O)[C@H]3C[C@@H]12` [Tetracycline HCl, tetracycline HCl], the “Cumulative Amount of Drug Absorbed” value is listed as 0.0180 mcg/cm^2 in series [2] (No TPIS, 1.25 hrs); 0.0550 mcg/cm^2 in series [2] (No TPIS, 2.25 hrs); 0.0650 mcg/cm^2 in series [2] (No TPIS, 3.25 hrs); 0.1450 mcg/cm^2 in series [2] (No TPIS, 4.25 hrs); 0.3040 mcg/cm^2 in series [2] (No TPIS, 5.25 hrs); 0.1765 mcg/cm^2 in series [2] (With TPIS (1 mA, 10 min/hr, 2000 Hz, square, on/off 4/1), 1.25 hrs). The “Cumulative Amount of Drug Absorbed” value in series [2] (With TPIS (1 mA, 10 min/hr, 2000 Hz, square, on/off 4/1), 2.25 hrs) came out at 0.2555 mcg/cm^2; in series [2] (With TPIS (1 mA, 10 min/hr, 2000 Hz, square, on/off 4/1), 3.25 hrs) it was 0.7815 mcg/cm^2; in series [2] (With TPIS (1 mA, 10 min/hr, 2000 Hz, square, on/off 4/1), 4.25 hrs), 1.3235 mcg/cm^2; in series [2] (With TPIS (1 mA, 10 min/hr, 2000 Hz, square, on/off 4/1), 5.25 hrs), 3.5600 mcg/cm^2.
